According to US20140323757A1, “Biosurfactant Isolated from Yeast” (Gyeongbuk Institute of Marine Bio-industry, priority 2013, published 2014):

assay: Surface tension measurement; format: physicochemical; design: unit not given here; conditions: at 1.5 mg/L
Excerpt: Surface tension is increased in proportion to molecular interaction, and hydrocarbons or organic polymers show low surface tension due to their weak molecular interaction. Surface tension is represented by N/m. Since surfactants have hydrophobic and hydrophilic groups, when added to water, its surface tension is lowered. […] The compounds represented by […]

Surface Tension	Structure (SMILES)
22.40	CCCCCC(=O)OC1C(O)C(O)C(O)C(O)C1OC(=O)CCCCC (single isomer, unassigned) [Compound A57-4-gly-2]
22.44	CCCCCC(=O)OC1C(O)C(O)C(O)C(O)C1OC(=O)CCCCC (single isomer, unassigned) [Compound A57-4-gly-5]
22.90	CCCCCC(=O)OC1C(O)C(O)C(O)C(OC(C)=O)C1OC(=O)CCCCC (centres unmarked) [Compound A57-4-gly-1]
28.71	CCCCCC(=O)OC1C(O)C(O)C(O)C(OC(=O)CCCCC)C1OC(C)=O (centres unmarked) [Compound A57-4-gly-3]
25.28	CCCCCC(=O)OC1C(O)C(O)C(O)C(OC(=O)CCCCC)C1OC(=O)CCCCC (centres unmarked) [Compound A57-4-gly-4]
